Patent US7655665B2, “Nitromethylene derivatives and their use” (East China University of Science and Technology, priority 2004, dated 2010)

Assays:
Nilaparvata lugens = assay: Insecticidal activity against Nilaparvata lugens (planthopper) by spraying; format: in vivo; conditions: 500 ppm, spraying 2 ml per tumbler, killed counted after 24 hours
Summary of the method: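 Ten planthoppers per tumbler were introduced 6 hours before spraying with 2 ml of test solution, with clean water as blank control. Each treatment had 3 replicates, and three series were run. Mortality was counted after 24 hours.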

Aphis craccivoral = assay: Insecticidal activity against Aphis craccivoral by immersing (dipping aphids on bean sprout); format: in vivo; conditions: 500 ppm (500 ug/mL dilution), dipped 5 seconds, killed aphis counted after 24 hours, 23° C.
Summary of the method: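 Wingless adult A. craccivora feeding on bean sprouts dipped 5 seconds in compound at 500 ug/mL (0.2 mL/L Triton X-100 aqueous), then held at 23 °C. Mortality counted after 24 hours, three replicates, vehicle-only control.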

Row | SMILES | mortality (%) (500 ppm) Nilaparvata-lugens (Nilaparvata lugens) | mortality (%) (500 ppm) Aphis (Aphis craccivoral)
1 | O=[N+]([O-])C1=C2N(Cc3cnc(Cl)s3)CCN2C(SCC(F)(F)F)CC1 (centres unmarked) [Compound 174] | 100% | 67%
2 | CCCSC1CCC([N+](=O)[O-])=C2N(Cc3cnc(Cl)s3)CCN21 (centres unmarked) [Compound 175] | 100% | 89%
3 | CC(C)SC1CCC([N+](=O)[O-])=C2N(Cc3cnc(Cl)s3)CCN21 (centres unmarked) [Compound 176] | 98% | 78%
4 | CCCCSC1CCC([N+](=O)[O-])=C2N(Cc3cnc(Cl)s3)CCN21 (centres unmarked) [Compound 178] | 12% | 23%
5 | CC(C)CSC1CCC([N+](=O)[O-])=C2N(Cc3cnc(Cl)s3)CCN21 (centres unmarked) [Compound 179] | 56% | 12%
6 | CCC(C)SC1CCC([N+](=O)[O-])=C2N(Cc3cnc(Cl)s3)CCN21 (centres unmarked) [Compound 180] | 78% | 34%
7 | CC(C)(C)SC1CCC([N+](=O)[O-])=C2N(Cc3cnc(Cl)s3)CCN21 (centres unmarked) [Compound 181] | 78% | 45%
8 | CCCCCSC1CCC([N+](=O)[O-])=C2N(Cc3cnc(Cl)s3)CCN21 (centres unmarked) [Compound 182] | 87% | 67%
9 | CC(C)CCSC1CCC([N+](=O)[O-])=C2N(Cc3cnc(Cl)s3)CCN21 (centres unmarked) [Compound 183] | 34% | 23%
10 | CCCC(C)SC1CCC([N+](=O)[O-])=C2N(Cc3cnc(Cl)s3)CCN21 (centres unmarked) [Compound 184] | 35% | 12%
11 | CC(C)(C)CSC1CCC([N+](=O)[O-])=C2N(Cc3cnc(Cl)s3)CCN21 (centres unmarked) [Compound 185] | 86% | 36%
12 | COCCSC1CCC([N+](=O)[O-])=C2N(Cc3cnc(Cl)s3)CCN21 (centres unmarked) [Compound 186] | 100% | 97%
13 | N=C1CCC([N+](=O)[O-])=C2N(Cc3ccc(Cl)nc3)CCN12 [Compound 188] | 67% | 55%
14 | CN=C1CCC([N+](=O)[O-])=C2N(Cc3ccc(Cl)nc3)CCN12 [Compound 189] | 100% | 100%
15 | CCN=C1CCC([N+](=O)[O-])=C2N(Cc3ccc(Cl)nc3)CCN12 [Compound 190] | 100% | 89%
16 | O=[N+]([O-])C1=C2N(Cc3ccc(Cl)nc3)CCN2C(=NCCCl)CC1 [Compound 191] | 78% | 53%
17 | CCCN=C1CCC([N+](=O)[O-])=C2N(Cc3ccc(Cl)nc3)CCN12 [Compound 192] | 100% | 86%
18 | CC(C)N=C1CCC([N+](=O)[O-])=C2N(Cc3ccc(Cl)nc3)CCN12 [Compound 193] | 98% | 93%
19 | CCCCN=C1CCC([N+](=O)[O-])=C2N(Cc3ccc(Cl)nc3)CCN12 [Compound 194] | 45% | 34%
20 | CCCCCN=C1CCC([N+](=O)[O-])=C2N(Cc3ccc(Cl)nc3)CCN12 [Compound 195] | 78% | 46%
21 | CC(C)CCN=C1CCC([N+](=O)[O-])=C2N(Cc3ccc(Cl)nc3)CCN12 [Compound 196] | 25% | 12%
22 | CCCC(C)N=C1CCC([N+](=O)[O-])=C2N(Cc3ccc(Cl)nc3)CCN12 (centres unmarked) [Compound 197] | 56% | 8%
23 | CC(C)(C)CN=C1CCC([N+](=O)[O-])=C2N(Cc3ccc(Cl)nc3)CCN12 [Compound 198] | 89% | 39%
24 | COCCN=C1CCC([N+](=O)[O-])=C2N(Cc3ccc(Cl)nc3)CCN12 [Compound 199] | 36% | 16%
25 | CCOCCN=C1CCC([N+](=O)[O-])=C2N(Cc3ccc(Cl)nc3)CCN12 [Compound 200] | 78% | 45%
26 | N=C1CCC([N+](=O)[O-])=C2N(Cc3ccc(Cl)nc3)CCCN12 [Compound 201] | 55% | 54%

Row | SMILES | mortality (%) (500 ppm) Nilaparvata-lugens (Nilaparvata lugens) | mortality (%) (500 ppm) Aphis (Aphis craccivoral)
27 | CN=C1CCC([N+](=O)[O-])=C2N(Cc3ccc(Cl)nc3)CCCN12 [Compound 202] | 98% | 89%
28 | CCN=C1CCC([N+](=O)[O-])=C2N(Cc3ccc(Cl)nc3)CCCN12 [Compound 203] | 100% | 92%
29 | O=[N+]([O-])C1=C2N(Cc3ccc(Cl)nc3)CCCN2C(=NCCCl)CC1 [Compound 204] | 78% | 46%
30 | CCCN=C1CCC([N+](=O)[O-])=C2N(Cc3ccc(Cl)nc3)CCCN12 [Compound 205] | 100% | 35%
31 | CC(C)N=C1CCC([N+](=O)[O-])=C2N(Cc3ccc(Cl)nc3)CCCN12 [Compound 206] | 98% | 56%
32 | CCCCN=C1CCC([N+](=O)[O-])=C2N(Cc3ccc(Cl)nc3)CCCN12 [Compound 207] | 45% | 14%
33 | CCCCCN=C1CCC([N+](=O)[O-])=C2N(Cc3ccc(Cl)nc3)CCCN12 [Compound 208] | 67% | 35%
34 | CC(C)CCN=C1CCC([N+](=O)[O-])=C2N(Cc3ccc(Cl)nc3)CCCN12 [Compound 209] | 26% | 23%
35 | CCCC(C)N=C1CCC([N+](=O)[O-])=C2N(Cc3ccc(Cl)nc3)CCCN12 (centres unmarked) [Compound 210] | 77% | 7%
36 | CC(C)(C)CN=C1CCC([N+](=O)[O-])=C2N(Cc3ccc(Cl)nc3)CCCN12 [Compound 211] | 56% | 34%
37 | N=C1CCC([N+](=O)[O-])=C2N(Cc3cnc(Cl)s3)CCN12 [Compound 212] | 23% | 34%
38 | CN=C1CCC([N+](=O)[O-])=C2N(Cc3cnc(Cl)s3)CCN12 [Compound 213] | 78% | 32%
39 | CCN=C1CCC([N+](=O)[O-])=C2N(Cc3cnc(Cl)s3)CCN12 [Compound 214] | 90% | 55%
40 | O=[N+]([O-])C1=C2N(Cc3cnc(Cl)s3)CCN2C(=NCCCl)CC1 [Compound 215] | 97% | 9%
41 | CCCCN=C1CCC([N+](=O)[O-])=C2N(Cc3cnc(Cl)s3)CCN12 [Compound 216] | 98% | 66%
42 | CCCN=C1CCC([N+](=O)[O-])=C2N(Cc3cnc(Cl)s3)CCN12 [Compound 217] | 100% | 23%
43 | CCCCCN=C1CCC([N+](=O)[O-])=C2N(Cc3cnc(Cl)s3)CCN12 [Compound 218] | 67% | 45%
44 | CC(C)N=C1CCC([N+](=O)[O-])=C2N(Cc3cnc(Cl)s3)CCN12 [Compound 219] | 45% | 34%
45 | N=C1CCC([N+](=O)[O-])=C2N(Cc3cnc(Cl)s3)CCCN12 [Compound 220] | 56% | 16%
46 | CN=C1CCC([N+](=O)[O-])=C2N(Cc3cnc(Cl)s3)CCCN12 [Compound 221] | 67% | 4%
47 | CCN=C1CCC([N+](=O)[O-])=C2N(Cc3cnc(Cl)s3)CCCN12 [Compound 222] | 89% | 4%
48 | O=[N+]([O-])C1=C2N(Cc3cnc(Cl)s3)CCCN2C(=NCCCl)CC1 [Compound 223] | 76% | 5%
49 | CCCCN=C1CCC([N+](=O)[O-])=C2N(Cc3cnc(Cl)s3)CCCN12 [Compound 224] | 66% | 45%
50 | CCCN=C1CCC([N+](=O)[O-])=C2N(Cc3cnc(Cl)s3)CCCN12 [Compound 225] | 78% | 35%
51 | CCCCCN=C1CCC([N+](=O)[O-])=C2N(Cc3cnc(Cl)s3)CCCN12 [Compound 226] | 57% | 22%
52 | CC(C)N=C1CCC([N+](=O)[O-])=C2N(Cc3cnc(Cl)s3)CCCN12 [Compound 227] | 100% | 100%
